According to patent publication US20230302082A1, “AGENT FOR REVERSIBLE OPENING OF NEURAL VASCULAR BARRIER” (YAMAGUCHI UNIVERSITY, priority 2020, published 2023):
Structures can show the parent of a compound that is named as a salt.

Columns and labels:
neural vascular barrier = experiment: Uptake of intravenously administered doxorubicin into cerebrum, liver and kidney with or without preadministration of CypA (doxorubicin fluorescence); type: in vivo, mouse
Experimental: Further, fluorescence emitted by doxorubicin was used to evaluate the uptake of doxorubicin into the cerebrum, the liver and the kidney. […] Fujifilm Wako Pure Chemical Corp.), an anticancer drug with low intracerebral penetration, was injected into caudal veins of mice with or without pre-injection of CypA (200 μg/kg). Pre-injection of CypA was performed intravenously 3 hours prior to the injection of doxorubicin. Mice were sacrificed 3 hours after the injection of doxorubicin hydrochloride, and the cerebrum, the liver, and the kidney were collected and embedded and frozen in OCT compound. Next, frozen sections of 30 μm thickness were prepared and observed under an LSM710 laser confocal microscope (Carl Zeiss AG).

[1] = system: mouse brain microvascular endothelial cell line bEnd.3 cells; experiment: Immunofluorescence staining and quantification of claudin-5 signals on the cell membranes of monolayer-cultured bEnd.3 cells; type: cell-based
Experimental: (§1) In an in vitro system, mouse brain microvascular endothelial cell line bEnd.3 cells (obtained from the American Type Culture Collection) were grown as a monolayer at 37° C. under 5% CO^2 in Dulbecco's modified Eagle's medium containing 4500 mg/L glucose (Sigma-Aldrich) supplemented with 10% fetal bovine serum (FBS). CypA (200, 300 or 400 ng/ml: BioVendor R&D) was added to the culture supernatant of the monolayer-cultured bEnd.3 cells, followed by incubation for 3 hours. Subsequently, expression changes of claudin-5 in the bEnd.3 cells were observed by immunofluorescence staining, and claudin-5 signals on the cell membranes were quantified. Further, TEER, an index of vascular barrier function, was measured in the bEnd.3 cell monolayer.
The immunofluorescence staining was performed as follows. First, the cultured bEnd.3 cells were fixed with 100% methanol for 5 min at room temperature and incubated with 10% non-immune goat serum (Invitrogen) for 30 minutes to block non-specific binding of antibodies. Next, the cells were reacted with rabbit polyclonal antibodies against claudin-5 (1/25 dilution, Invitrogen) at 4° C. overnight. After washing with phosphate-buffered saline (PBS), the cells were incubated with Alexa Fluor 488 goat anti-rabbit IgG (1/200 dilution, Eugene) for 1 hour at room temperature under light protection. […] For a quantitative analysis, fluorescence intensities of claudin-5 on the plasma membranes were measured using an operation menu installed in LSMS Pascal6, 7.3. […] Fluorescence intensities were then quantified at points on the cell membranes that intersected the drawn straight lines. The mean value of the fluorescence intensities was calculated as an expression level of claudin-5 on the cell membranes of each monolayer at approximately 80 points. […]
The immunofluorescence staining, the quantification of the claudin-5 signals on the cell membranes, and the measurement of TEER in the bEnd.3 cell monolayer were performed in the same manner as in Example 1 except that CypA (300 ng/ml: BioVendor R&D) lacking PPlase activity was used as CypA. […]

bEnd.3 cell monolayer = experiment: TEER (index of vascular barrier function) of the bEnd.3 cell monolayer; type: cell-based, mouse
Experimental: as §1
The immunofluorescence staining, the quantification of the claudin-5 signals on the cell membranes, and the measurement of TEER in the bEnd.3 cell monolayer were performed in the same manner as in Example 1 except that CypA (300 ng/ml: BioVendor R&D) lacking PPlase activity was used as CypA.
In order to evaluate the opening effect of CypA on the neural vascular barrier over time, the same experiment as in Example 1 was performed while changing the treatment time of CypA. Specifically, CypA at a concentration of 300 ng/ml was applied to the cells, followed by incubation for 1, 3, 6, 9, and 12 hours. Then, the cells were subjected to the immunofluorescence staining, the quantification of the claudin-5 signals on the cell membranes, and the measurement of TEER in the bEnd.3 cell monolayer.

[2] = system: mouse retinal vasculature; experiment: Claudin-5 expression in endothelial cell membranes of the retinal vasculature after intravenous CypA (immunofluorescence); type: in vivo; conditions: mouse retina, single intravenous injection 200 μg/kg
Excerpt: Based on the results of Example 1, a change in the barrier function caused by CypA administration was examined in vivo using a mouse retinal tissue. Note that the retina is a tissue that is formed as an outgrowth of the central neural system during the process of ontogeny and is a part of the central neural system like the brain. Since the vascular system of the retina can be two-dimensionally observed and evaluated over the entire length in the longitudinal direction, the retina was used as an analysis material representing the central neural system in the present example.
(§2) Seven-week-old male C57B6/N mice (Japan SLC, Inc.) were given a single intravenous injection (200 μg/kg) of CypA. A change in the expression level of claudin-5 localized in the endothelial cell membranes of the retinal vasculature and permeability of the retinal vasculature were measured 3, 6, and 24 hours after the […] injection. The change in the expression of claudin-5 was measured by immunofluorescence staining using the rabbit polyclonal antibodies against claudin-5 in the same manner as in Example 1. The above-mentioned measurement of the permeability of the retinal vasculature was performed as follows.

[3] = system: mouse retinal vasculature; experiment: Permeability of the retinal vasculature (leakage of injected tracer dye, index of blood-retinal barrier function); type: in vivo; conditions: mouse retina, single intravenous injection 200 μg/kg
Experimental: as §2
First, 500 μL of PBS containing 100 μg/mL Hoechst dye H33258 (molecular weight 534 Da, Sigma-Aldrich) and 1 mg/mL tetramethylrhodamine-conjugated lysine-fixable dextran (molecular weight 10,000 Da, Thermo Fisher Scientific) was injected into the left ventricle as a tracer dye. After injection of the Hoechst dye, eyes were enucleated and immediately fixed with 4% paraformaldehyde (PFA) for 15 min at room temperature under light protection, thereby preparing retinal flat mounts. They were mounted in a fluorescent mounting medium, and leakage of the injected tracer was observed under a Zeiss LSM510 META laser confocal microscope (Carl Zeiss AG) to measure the permeability of the retinal vasculature (an index of blood-retinal barrier function). Experiments were performed independently 3 times or more.

Compound	fluorescent signals of doxorubicin in the liver and the kidney (neural vascular barrier; mouse, doxorubicin hydrochloride 6.25 mg/kg i.v., 3 hours after injection, with or without pre-injection of CypA)	doxorubicin fluorescence signal in the cerebrum (neural vascular barrier; mouse, doxorubicin hydrochloride 6.25 mg/kg i.v., 3 hours after injection, with preadministration of CypA 200 μg/kg i.v. 3 hours before)	doxorubicin fluorescence signal in the cerebrum (neural vascular barrier; mouse, doxorubicin hydrochloride 6.25 mg/kg i.v., 3 hours after injection, without preadministration of CypA)	claudin-5 level on the cell membranes ([1]; CypA 300 ng/ml, 3 hours after treatment (FIG. 3a, 3b))	claudin-5 level on the cell membranes ([1]; CypA 300 ng/ml, 6 hours (FIG. 3a, 3b))	claudin-5 level on the cell membranes ([1]; CypA 200, 300 or 400 ng/ml, 3 hours after treatment (FIG. 1a, 1B))	barrier function (TEER) (bEnd.3 cell monolayer; CypA 300 ng/ml, 3 hours after treatment (FIG. 3c))	barrier function (TEER) (bEnd.3 cell monolayer; CypA 300 ng/ml, 6 hours (FIG. 3c))	barrier function (TEER) (bEnd.3 cell monolayer; CypA 200, 300 or 400 ng/ml, 3 hours after treatment (FIG. 1c))	effect of CypA preadministration on delivery of doxorubicin to the neural tissue parenchyma (neural vascular barrier; mouse cerebrum, CypA 200 μg/kg i.v. 3 hours before doxorubicin hydrochloride 6.25 mg/kg i.v.)	effect of CypA pre-injection on intensities of doxorubicin fluorescence signals in the liver and the kidney (neural vascular barrier; mouse, CypA 200 μg/kg i.v. 3 hours before doxorubicin hydrochloride 6.25 mg/kg i.v.)	expression level of claudin-5 in the cell membranes of the peripheral microvascular endothelial cells ([2]; 3 hours (FIG. 4a))	expression level of claudin-5 in the cell membranes of the peripheral microvascular endothelial cells ([2]; 24 hours (FIG. 4a))	leakage of the injected tracer dye ([3]; 3 hours (FIG. 4b))	leakage of the injected tracer dye ([3]; 6 hours (FIG. 4b))	leakage of the injected tracer dye ([3]; 24 hours (FIG. 4b))
COc1cccc2c1C(=O)c1c(O)c3c(c(O)c1C2=O)C[C@@](O)(C(=O)CO)C[C@@H]3O[C@H]1C[C@H](N)[C@H](O)[C@H](C)O1 [doxorubicin, Doxorubicin hydrochloride]	strong fluorescent signals of doxorubicin were detected	significant doxorubicin fluorescence signals were detected	no doxorubicin fluorescence signal was detected													
Cyclophilin A [CypA]				decreased significantly	recovered to the level prior to the CypA stimulation	significantly reduced	significantly decreased	recovered to the state prior to the CypA stimulation	significant reduction in the barrier function	allowed the intravenously administered doxorubicin to pass through the neural vascular barrier and reach the neural tissue parenchyma	not significantly affected	decrease	recovered to a physiological level	increased	decreased after 6 hours as compared with after 3 hours	returned to an undetectable physiological level
